# Measurements reported in patent US10178866B2, “N-halamine containing fibrous compositions and uses thereof” (priority 2014, dated 2019).
# How the values were obtained:
# [1] = hydrolysis equilibrium / dissociation of compound I to free chlorine; assay type: physicochemical
# Staphylococcus aureus = test: disinfection at low concentration in aqueous solution; assay type: cell-based; conditions: 25 mg/L in aqueous solution; dependent on pH
# Source text: In various embodiments provided herein, the N-halamine is 1-chloro-2,2,5,5-tetramethyl-4-imidazolidinone (“compound I”). Compound I is a stable N-halamine both in aqueous solution and in the solid state as long as it is not exposed to direct sunlight or extensive UV radiation. At ambient temperature, the hydrolysis equilibrium constant of compound I to produce its precursor 2,2,5,5-tetramethyl-4-imidazolidinone and “free chlorine” (HOCl) is lower than 10^−11. At low concentration in aqueous solution (e.g., 25 mg/L), long contact times (typically between 1-10 hours, dependent on pH) are required to obtain a 6-log reduction of Staphylococcus aureus. […] Furthermore, compound I is inexpensive and may be prepared according to the procedures described in U.S. Pat. No. 5,057,612, U.S. Pat. No. 5,126,057, or Tsao et al. (“Novel N-halamine Disinfectant Compounds,” Biotechnol. Prog., 1991; 7:60), the disclosures of all which are incorporated herein in their entirety.
# [2] = test system: Staphylococcus aureus ATCC 6538; test: sandwich test, wet wipes; assay type: cell-based; conditions: contact time 1 min, inoculum 6.35
# Description: (§1) In the first test, CVS brand commercial wet wipes were first dried at 45° C. for 1 hour before impregnation with solutions of compound I. Different concentrations (wt %) of compound I were prepared in ethyl alcohol, and the wipes were soaked in the solutions for 5 minutes. After soaking in the solutions, each wipe was mounted between two filter papers, and a weight of 290 grams was placed uniformly over the stack. At the end of a 30 second period, the wet wipes were placed in closed vials to prevent further loss of solvent.
# (§2) For antibacterial testing, CVS brand commercial wipes were used as received as controls and wipes impregnated with compound I at a concentration of 1.0 wt % in ethyl alcohol were prepared as described above. […] After the plates were incubated at 37° C. for 24 hours, viable bacterial colonies were counted for the biocidal efficacy analysis.
# [3] = test system: Escherichia coli O157:H7 ATCC 43895; test: sandwich test, wet wipes; assay type: cell-based; conditions: contact time 1 min, inoculum 6.50
# Description: as §1, §2
# [4] = test system: Staphylococcus aureus ATCC 6538; test: sandwich test, gauze pads (wound dressing); assay type: cell-based; conditions: chlorine loading 0.47 ± 0.01 wt %, inoculum 6.00 logs
# Description: (§3) Compound I at a concentration of 1% by weight was dissolved in ethyl alcohol at room temperature. Non-stick gauze pads sized 20.3×7.6 cm (8×3 inch) obtained from Curad® were soaked in the solution for 10 minutes. The gauze pads were then passed through a laboratory wringer (Birch Brothers Southern, Waxhaw, N.C., U.S.A.) at low pressure settings. This procedure was followed by drying the samples at room temperature overnight. The titrated oxidative chlorine loading of the gauze pads was 0.47±0.01 wt %.
# (§4) Gauze pads impregnated with compound I and non-impregnated sterile gauze pads (used as received as controls) were challenged with Staphylococcus aureus (S. aureus, ATCC 6538), Escherichia coli(E. coli O157:H7, ATCC 43895), and Pseudomonas aeruginosa (P. aeruginosa, ATCC 27853). The bacteria were suspended in 100 μM phosphate buffer (pH 7) to produce a suspension of known population (colony forming units, CFU/mL). Then, an aliquot of 25 μL of this suspension was placed in the center of a 2.54×2.54 cm^2 gauze swatch, and a second identical swatch was placed on top. Both swatches were covered by a sterile weight to ensure sufficient contact with the bacteria. After predetermined contact times, samples were quenched by 5.0 mL of sterile 0.02 N sodium thiosulfate solution to neutralize the oxidative chlorine and thus terminate the disinfection action. Samples were vortexed for 2 minutes, and then serial dilutions were prepared using pH 7, 100 μM phosphate buffer and plated on Trypticase soy agar plates. After the plates were incubated at 37° C. for 24 hours, viable bacterial colonies were counted for the biocidal efficacy analysis.
# [5] = test system: Pseudomonas aeruginosa ATCC 27853; test: sandwich test, gauze pads (wound dressing); assay type: cell-based; conditions: chlorine loading 0.47 ± 0.01 wt %, inoculum 6.12 logs
# Description: as §3, §4
# [6] = test system: Escherichia coli O157:H7 ATCC 43895; test: sandwich test, gauze pads (wound dressing); assay type: cell-based; conditions: chlorine loading 0.47 ± 0.01 wt %, inoculum 5.86 logs
# Description: as §3, §4
# [7] = contact time 1 min, listed as compound I
structure (smiles),measurement,setting,value
"CC1(C)NC(=O)C(C)(C)N1Cl [Compound I, 1-chloro-2,2,5,5-tetramethyl-4-imidazolidinone]",dissociation constant (chlorine release),[1],lower than 10^−11
same,"hydrolysis equilibrium constant to produce 2,2,5,5-tetramethyl-4-imidazolidinone and free chlorine (HOCl)",[1]; ambient temperature,lower than 10^−11
same,contact time required to obtain a 6-log reduction,Staphylococcus aureus,1-10 hours
same,Bacterial Reduction (logs) S. aureus,[2],6.35 logs
same,Bacterial Reduction (logs) E. coli O157:H7,[3],6.5 logs
same,Bacterial reduction (log) S. aureus,[4]; contact time 1 min,3.07 log
same,Bacterial reduction (log) S. aureus,[4]; contact time 5 min,6.00 log
same,Bacterial reduction (log) S. aureus,[4]; contact time 10 min,6.00 log
same,Bacterial reduction (log) S. aureus,[4]; contact time 30 min,6.00 log
same,Bacterial Reduction (log) P. aeruginosa,[5]; contact time 1 min,6.12 log
same,Bacterial Reduction (log) P. aeruginosa,[5]; [7],about 6 log
same,Bacterial Reduction (log) P. aeruginosa,[5]; contact time 5 min,6.12 log
same,Bacterial Reduction (log) P. aeruginosa,[5]; contact time 10 min,6.12 log
same,Bacterial Reduction (log) P. aeruginosa,[5]; contact time 30 min,6.12 log
same,Bacterial Reduction (log) E. coli O157:H7,[6]; contact time 1 min,5.86 log
same,Bacterial Reduction (log) E. coli O157:H7,[6]; [7],about 6 log
same,Bacterial Reduction (log) E. coli O157:H7,[6]; contact time 5 min,5.86 log
same,Bacterial Reduction (log) E. coli O157:H7,[6]; contact time 10 min,5.86 log
same,Bacterial Reduction (log) E. coli O157:H7,[6]; contact time 30 min,5.86 log
